In brackets after ≈: the same amount, converted by molar mass. Several values for one entry are separate records, joined by “and”; a condition that tells them apart may be missing. Identical values can stand only once. Like-named read-outs stand apart in the source and are kept apart here. {LC640} = LightCycler Red 640 dye label (LCRED640); {FL} = fluorescein label (FL); {P} = phosphate
How the values were obtained:
Salmonella strains = assay: Minimum inhibitory concentration (MIC) of quinolone antibacterials by E-test strips; format: cell-based, Salmonella spp.; settings: for MIC: Salmonella
Description: The minimum inhibitory concentration was deterrnined by the E-test strips of quinolone antibacterials (AB BIODISC North America Inc., Solna, Sweden). The bacterial strain to be tested was streak plated on xylose lysin desoxycholate agar (XLD) (Merck kGaA, Darmstadt, Germany). After the purity of said strain was verified, the strain was grown on tryptic soy agar (TSA) medium (Merck kGaA, Darrnstadt, Germany) at 35-37° C. for 16-18 hours and then suspended in sterile water. The bacterial concentration was adjusted to 80% of turbidity (corresponding to 0.5 MacFarland turbidity standard, and the bacterial content is approximately […]) using Vitek Special DR 100 Colorimeter (HACH Company, Colorado, USA). Then, 0.1 ml of the bacterial aliquot was placed on the prepared Mueller-Hinton (M-H) agar medium (having the diameter of 9 cm and the thickness of 4.0±0.5 mm) (Merck kGaA, Darmstadt, Germany) and the aliquot was spread evenly on the medium by a sterilized glass rod. The medium plate stood still for 10 to 15 minutes to ensure that the bacterial aliquot completely penetrated into the medium. Thereafter, a sterilized tweezer was used to clip the E region of the E-test antibacterial test strip which was then placed on the inoculated M-H medium plate. Two E-test trips were placed parallel to each other and symmetrically on each medium plate. Said medium plates were then incubated at 35-37° C. for 16-18 hours. The results were determined based on the standards from National Committee for Clinical Laboratory Standard (NCCLS, 2001), USA. Each antibacterial agent was tested in a duplicate experiment, and E. coli ATCC 25922/CCRC 11509 was used as the control of the tested strains in each experiment.

[1] = tested on: single-stranded PCR products of Salmonella gyrA gene; assay: Real-time PCR with melting curve analysis of gyrA4 hybridization probes; format: binding, Salmonella spp.
Description: (§1) The bacterial strain to be tested was streak plated on XLD medium. After the purity of said strain was verified, the strain was grown in TSB broth at 35±1° C. for 18±2 hours. Following refrigerated centrifugation, Wizard® Genomic DNA Purification Kit was used to extract the genomic DNA. One microliter of the DNA extraction solution was added to the reaction mix (containing 0.5 μM primer set, 0.2 μM probe set, 4 mM MgCl2, and 1×LightCycler DNA Master hybridization mix) to a final volume of 20 μl, which was then placed in LightCycler (Roche Applied Science, Mannheim, Germany) for amplification and melting reaction of the hybrid of the PCR product with the hybridization probes.

[2] = tested on: single-stranded PCR products of parC gene; assay: Real-time PCR with melting curve analysis of parC238 hybridization probes; format: binding, Salmonella spp.
Description: as §1

[3] = Table 4, gyrA single point mutation strains (52)

O=C(O)c1cn(C2CC2)c2cc(N3CCNCC3)c(F)cc2c1=O [ciprofloxacin]
Susceptibility Cp (Salmonella strains; Mutant strains (75)): S/R
Susceptibility (Salmonella strains; Table 4, Wild type strains): S
Susceptibility (Salmonella strains; [3]): S
Susceptibility Cp (Salmonella strains; Wild type strains (45)): S (S, susceptibility, MICs 0.006-0.38 μg/ml)
Ciprofloxacin susceptibility (Salmonella strains; parC mutant (A238C) strains (23)): Resistant
Ciprofloxacin susceptibility (Salmonella strains; parC wild type strains (97)): Sensitive
Susceptibility (Salmonella strains; {}): S

CCn1cc(C(=O)O)c(=O)c2ccc(C)nc21 [nalidixic acid]
share of the 120 Salmonella strains tested that were resistant (Salmonella strains; 120 strains from animal foods and clinical samples): 62.5%
MIC (Salmonella strains; read-out: MICs, resistant strains (gyrA mutants)): ≥ 256 µg/mL
MIC (Salmonella strains; susceptible strains (wild type), read-out: MICs): 2.5 to 7 µg/mL (≈ 10.8 to 30.1 µM)
Susceptibility (Salmonella strains; Table 4, Wild type strains): S
Susceptibility (Salmonella strains; [3]): R
Susceptibility NA (Salmonella strains; Wild type strains (45)): S (S, susceptibility, MICs 2.5˜7 μg/ml)
Susceptibility (Salmonella strains; {}): R
Susceptibility NA (Salmonella strains; {}): R (R, resistance, MICs ≧ 256 μg/ml)

gyrA4: hybridization probe set of gyrA4-FL (SEQ ID NO: 5) and gyrA4-LC640 (SEQ ID NO: 6) (DNA 1 CGATTCCGCAGTGTATGACACC; DNA 2 CGTTCGTATGGCGCAGCCATTCTCG; DNA 1: DNA, 3' {FL}, backbone not given here; DNA 2: DNA, 5' {LC640}, 3' {P}, backbone not given here; listed as Salmonella sp.)
Tm ± SD (CV %) ([1]; C248A mutant strains): 58.6±0.3 °C and 58.6 ± 0.3 (0.51) ° C.
Tm ± SD (CV %) ([1]; C248T mutant strains): 59.1±0.2 °C and 59.1 ± 0.2 (0.40) ° C.
Tm ± SD (CV %) ([1]; G259A mutant strains): 59.8±0.4 °C and 59.8 ± 0.4 (0.60) ° C.
Tm ± SD (CV %) ([1]; G259T mutant strains): 59.6±0.4 °C and 59.6 ± 0.4 (0.68) ° C.
Tm ± SD (CV %) ([1]; Wild type strains): 63.6±1.0 °C and 63.6 ± 1.0 (1.62) ° C.
Tm ± SD (CV %) ([1]; double point mutation C248T/A260G strains): 54.6±0.2 °C and 54.6 ± 0.2 (0.27) ° C.
Tm ± SD (CV %) ([1]; single point mutation strains (C248A, C248T, G259A, G259T)): 59.2±0.5 °C and 59.2 ± 0.5 (0.89) ° C.

parC238: hybridization probe set of parC238-FL (SEQ ID NO: 7) and parC238-LC640 (SEQ ID NO: 8) (DNA 1 CGACCGCGCCTGCT; DNA 2 GAAGCCATGGTGCTGATGGCG; DNA 1: DNA, 3' {FL}, backbone not given here; DNA 2: DNA, 5' {LC640}, 3' {P}, backbone not given here; listed as Salmonella sp.)
Tm ± SD (CV %) ([2]; parC mutant (A238C) strains): 61.4±0.3 °C
Tm ± SD (CV %) ([2]; parC wild type strains): 47.4±0.5 °C

— patent publication US20070031889A1, “Method for rapidly detecting quinolone-resistant Salmonella ssp. and the probes and primers utilized therein” (Bureau of Food and Drug Analysis, Department of Health, …, priority 2004, published 2007)
